Assay results reported in patent US9034921B2, “Diphenylmethane derivatives as SGLT2 inhibitors” (GREEN CROSS CORPORATION, priority 2011, dated 2015).

Target: human SGLT2 (Homo sapiens (Human), UniProt P31639)
Assay: Inhibitory effects on human SGLT2 activities (14C-AMG uptake, sodium-dependent glucose transport assay)
Format: cell-based
Conditions: CHO cells stably expressing hSGLT2, 37° C., 2 h, single determinations
Summary of the method: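 CHO cells stably expressing hSGLT2 were preincubated 10 min at 37 °C in choline (Na+-free) buffer, then exposed 2 h at 37 °C to compound in Na+ uptake buffer with 8 μM 14C-AMG and 1 mM unlabeled AMG. Radioactivity was scintillation counted; IC50 came from nonlinear regression.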

Chain of human SGLT2 (P31639 whole entry): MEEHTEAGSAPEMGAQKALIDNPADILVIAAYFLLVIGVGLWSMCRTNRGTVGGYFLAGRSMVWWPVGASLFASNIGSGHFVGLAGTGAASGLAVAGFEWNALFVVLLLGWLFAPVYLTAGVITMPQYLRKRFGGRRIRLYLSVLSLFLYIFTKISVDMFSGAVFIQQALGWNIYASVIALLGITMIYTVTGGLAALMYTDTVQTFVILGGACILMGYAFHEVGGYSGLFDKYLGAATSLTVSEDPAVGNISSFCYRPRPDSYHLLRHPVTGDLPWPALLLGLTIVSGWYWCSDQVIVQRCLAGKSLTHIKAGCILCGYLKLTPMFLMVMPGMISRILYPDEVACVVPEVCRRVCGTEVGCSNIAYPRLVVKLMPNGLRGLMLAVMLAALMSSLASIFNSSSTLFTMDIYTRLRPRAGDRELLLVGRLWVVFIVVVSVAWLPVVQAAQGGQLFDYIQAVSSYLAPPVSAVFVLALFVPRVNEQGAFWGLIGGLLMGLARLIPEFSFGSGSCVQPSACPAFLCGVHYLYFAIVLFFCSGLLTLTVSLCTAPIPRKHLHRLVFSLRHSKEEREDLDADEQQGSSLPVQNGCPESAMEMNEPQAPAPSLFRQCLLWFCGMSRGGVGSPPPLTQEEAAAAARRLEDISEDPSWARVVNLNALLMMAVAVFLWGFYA

Point of comparison: `CCOc1ccc(Cc2cc([C@@H]3O[C@H]([S+](C)[O-])[C@@H](O)[C@H](O)[C@H]3O)c3c(c2Cl)CC(C)O3)cc1` (stereo partly drawn) [Example E147, (2S,3R,4R,5S,6R)-2-(4-Chloro-5-(4-ethoxybenzyl)-2-methyl-2,3-dihydrobenzofuran-7-yl)-6-((S)-methylsulfinyl)tetrahydro-2H-pyran-3,4,5-triol], IC50 5.4 nM. Against it:
- OC[C@H]1O[C@@H](c2cc(Cc3ccc(OC(F)(F)F)cc3)c(Cl)c3c2CCO3)[C@H](O)[C@@H](O)[C@@H]1O [Example E200, (2S,3R,4R,5S,6R)-2-(7-Chloro-6-(4-(trifluoromethoxy)benzyl)-2,3-dihydrobenzofuran-4-yl)-6-(hydroxymethyl)tetrahydro-2H-pyran-3,4,5-triol] — 5-fold lower, 1.08 nM
- COc1cc(Cl)c(Cc2ccc3c(c2)OCCO3)cc1[C@@H]1S[C@H](CO)[C@@H](O)[C@H](O)[C@H]1O [Example E048, (2S,3R,4R,5S,6R)-2-(4-Chloro-5-((2,3-dihydrobenzo[b][1,4]dioxin-6-yl)methyl)-2-methoxyphenyl)-6-(hydroxymethyl)tetrahydro-2H-thiopyran-3,4,5-triol] — 2.1-fold lower, 2.62 nM
- CCc1ccc(Cc2cc([C@@H]3O[C@H](CO)[C@@H](O)[C@H](O)[C@H]3O)c3c(c2Cl)OCCCO3)cc1 [Example E165, (2S,3R,4R,5S,6R)-2-(9-Chloro-8-(4-ethylbenzyl)-3,4-dihydro-2H-benzo[b][1,4]dioxepin-6-yl)-6-(hydroxymethyl)tetrahydro-2H-pyran-3,4,5-triol] — 5-fold lower, 1.08 nM
- CCOc1ccc(Cc2cc([C@@H]3O[C@H](CO)[C@@H](O)[C@H](O)[C@H]3O)c3c(c2Cl)OCC3(C)C)cc1 [Example E225, (2S,3R,4R,5S,6R)-2-(7-Chloro-6-(4-ethoxybenzyl)-3,3-dimethyl-2,3-dihydrobenzofuran-4-yl)-6-(hydroxymethyl)-tetrahydro-2H-pyran-3,4,5-triol] — 3-fold lower, 1.82 nM
- CCc1ccc(Cc2cc([C@@H]3O[C@H](CO)[C@@H](O)[C@H](O)[C@H]3O)c3c(c2Cl)OCC3)cc1 [Example E020, (2S,3R,4R,5S,6R)-2-(6-(4-Ethylbenzyl)-7-chloro-2,3-dihydrobenzofuran-4-yl)-6-(hydroxymethyl)-tetrahydro-2H-pyran-3,4,5-triol] — 7.6-fold lower, 0.715 nM
- COc1ccc(Cc2cc([C@@H]3O[C@H](CO)[C@@H](O)[C@H](O)[C@H]3O)c3c(c2Cl)CC(C)(C)O3)cc1 [Example E219, (2S,3R,4R,5S,6R)-2-(4-Chloro-5-(4-methoxybenzyl)-2,2-dimethyl-2,3-dihydrobenzofuran-7-yl)-6-(hydroxymethyl)tetrahydro-2H-pyran-3,4,5-triol] — 3.4-fold lower, 1.61 nM
- OC[C@H]1S[C@@H](c2ccc(Cl)c(Cc3ccc4c(c3)OCCO4)c2)[C@H](O)[C@@H](O)[C@@H]1O [Example E047, (2S,3R,4R,5S,6R)-2-(4-Chloro-3-((2,3-dihydrobenzo[b][1,4]dioxin-6-yl)methyl)phenyl)-6-(hydroxymethyl)tetrahydro-2H-thiopyran-3,4,5-triol] — within 1.5-fold, 4.17 nM
- CCN(CC)c1ccc(Cc2cc([C@@H]3O[C@H](CO)[C@@H](O)[C@H](O)[C@H]3O)ccc2Cl)cc1 [Example E210, (2S,3R,4R,5S,6R)-2-(4-Chloro-3-(4-(diethylamino)benzyl)phenyl)-6-(hydroxymethyl)tetrahydro-2H-pyran-3,4,5-triol] — 17-fold higher, 89.3 nM
- COc1ccc(Cc2cc([C@@H]3O[C@H](CO)[C@@H](O)[C@H](O)[C@H]3O)c3c(c2Cl)OCC3)s1 [Example E207, (2S,3R,4R,5S,6R)-2-(7-Chloro-6-((5-methoxythiophen-2-yl)methyl)-2,3-dihydrobenzofuran-4-yl)-6-(hydroxymethyl)tetrahydro-2H-pyran-3,4,5-triol] — within 1.5-fold, 3.75 nM
- CC(=O)c1ccc(Cc2cc([C@@H]3O[C@H](CO)[C@@H](O)[C@H](O)[C@H]3O)c3c(c2Cl)OCC3)cc1 [Example E168, 1-(4-((7-Chloro-4-((2S,3R,4R,5S,6R)-3,4,5-trihydroxy-6-(hydroxymethyl)tetrahydro-2H-pyran-2-yl)-2,3-dihydrobenzofuran-6-yl)methyl)phenyl)ethanone] — 5.6-fold lower, 0.96 nM
- OC[C@H]1O[C@@H](c2ccc(Cl)c(Cc3ccc4c(c3)CCC4)c2)[C@H](O)[C@@H](O)[C@@H]1O [Example E057, (2S,3R,4R,5S,6R)-2-(4-Chloro-3-((2,3-dihydro-1H-inden-5-yl)methyl)phenyl)-6-(hydroxymethyl)-tetrahydro-2H-pyran-3,4,5-triol] — 2.5-fold lower, 2.15 nM
- COc1ccc(Cc2cc([C@@H]3O[C@H](CO)[C@@H](O)[C@H](O)[C@H]3O)c3c(c2Cl)OCCO3)cc1 [Example E104, (2S,3R,4R,5S,6R)-2-(8-Chloro-7-(4-methoxybenzyl)-2,3-dihydrobenzo[b][1,4]dioxin-5-yl)-6-(hydroxymethyl)tetrahydro-2H-pyran-3,4,5-triol] — 2.7-fold lower, 2 nM
- Cn1ncc2cc(Cc3cc([C@@H]4O[C@H](CO)[C@@H](O)[C@H](O)[C@H]4O)ccc3Cl)ccc21 [Example E035, (2S,3R,4R,5S,6R)-2-(4-Chloro-3-((1-methyl-1H-indazol-5-yl)methyl)phenyl)-6-(hydroxymethyl)tetrahydro-2H-pyran-3,4,5-triol] — 3.1-fold lower, 1.72 nM
- CO[C@@H]1O[C@@H](c2ccc(Cl)c(Cc3ccc4c(c3)OCCO4)c2)[C@H](O)[C@@H](O)[C@@H]1O [Example E094, (2S,3R,4R,5S,6R)-2-(4-Chloro-3-((2,3-dihydrobenzo[b][1,4]dioxin-6-yl)methyl)phenyl)-6-methoxy-tetrahydro-2H-pyran-3,4,5-triol] — 10-fold higher, 53.9 nM
- COC1O[C@@H](c2ccc(Cl)c(Cc3ccc4c(c3)OCCO4)c2)[C@H](O)[C@@H](O)[C@@H]1O (stereo partly drawn) [Example E093, (2S,3R,4R,5S)-2-(4-Chloro-3-((2,3-dihydrobenzo[b][1,4]dioxin-6-yl)methyl)phenyl)-6-methoxytetrahydro-2H-pyran-3,4,5-triol] — 3.1-fold higher, 16.8 nM
- CCc1ccc(Cc2cc([C@@H]3O[C@H](CO)[C@@H](O)[C@H](O)[C@H]3O)c3c(c2Cl)OCC3C)cc1 (stereo partly drawn) [Example E153, (2S,3R,4R,5S,6R)-2-(7-Chloro-6-(4-ethylbenzyl)-3-methyl-2,3-dihydrobenzofuran-4-yl)-6-(hydroxymethyl)tetrahydro-2H-pyran-3,4,5-triol] — 7.5-fold lower, 0.721 nM
- CCOc1ccc(Cc2cc([C@@H]3O[C@H](OC)[C@@H](O)[C@H](O)[C@H]3O)c(OC)cc2Cl)cc1 [Example E109, (2S,3R,4R,5S,6S)-2-(4-Chloro-5-(4-ethoxybenzyl)-2-methoxyphenyl)-6-methoxytetrahydro-2H-pyran-3,4,5-triol] — 5.4-fold higher, 29.1 nM
- C=Cc1ccc(Cc2cc([C@@H]3O[C@H](CO)[C@@H](O)[C@H](O)[C@H]3O)c3c(c2Cl)OCC3)cc1 [Example E171, (2S,3R,4R,5S,6R)-2-(7-Chloro-6-(4-vinylbenzyl)-2,3-dihydrobenzofuran-4-yl)-6-(hydroxymethyl)tetrahydro-2H-pyran-3,4,5-triol] — 15-fold lower, 0.366 nM
- OC[C@H]1O[C@@H](c2cc(Cc3ccc(C4CC4)cc3)c(Cl)c3c2CCCO3)[C@H](O)[C@@H](O)[C@@H]1O [Example E155, (2S,3R,4R,5S,6R)-2-(8-Chloro-7-(4-cyclopropylbenzyl)chroman-5-yl)-6-(hydroxymethyl)tetrahydro-2H-pyran-3,4,5-triol] — 6.1-fold lower, 0.881 nM
